In test [1] the target is T1, SMOX (Homo sapiens, UniProt Q9NWM0).
T1 construct: using 0.3 µg/mL of purified SMOX enzyme and 2 mM of spermine substrate
Description: SMOX enzyme activity, HRP-luminol chemiluminescence assay. The test is classed as biochemical. The note with it: 2 mM spermine. The protocol:
As the catabolism of spermine by SMOX results in the stoichiometric production of H2O2, enzyme activity was quantified by chemiluminescence generated by the horseradish peroxidase-catalyzed oxidation of luminol in 96-well plates (Costar #3912; white, flat bottom), as previously described. All assays were performed in 0.083 M glycine buffer at a pH of 8 using 0.3 µg/mL of purified SMOX enzyme and 2 mM of spermine substrate. Phosphate buffer was not used to prevent the formation of polyamine–phosphate complexes. Enzyme reactions were initiated by the addition of SMOX and HRP to all other assay components; inhibitors were not pre-incubated with enzyme. Triplicate determinations were obtained for each measurement by recording the luminescence (AUC) over 60 s. Hit compounds were then confirmed by monitoring the assay over 600 s. Each triplicate assay point contained a 4th control well to monitor and normalize the data with regards to luminescent decay over time. The compounds were initially screened for activity at a concentration of 20 µM. […] The known SMOX inhibitor, MDL-72527, was used as a control. The hit compounds were then characterized by IC50 and kinetic analyses. Percent inhibition values are reported as triplicate mean % SMOX inhibition ± SD compared to the vehicle control. IC50 values were calculated in GraphPad Prism 9.3 software (Graph-Pad, San Diego, California) using a non-linear regression analysis ([Inhibitor] vs. normalized response—variable slope). Data for all enzyme assays were generated using a SpectraMax M5 plate reader (Molecular Devices) equipped with SOFTmax PRO 7.0.3 software.

The target in test [2] is T2, recombinant human MAO-B (Homo sapiens, UniProt P27338).
T2 construct: purchased Sigma-Aldrich M7441-1VL
T2 sequence (P27338 1-520): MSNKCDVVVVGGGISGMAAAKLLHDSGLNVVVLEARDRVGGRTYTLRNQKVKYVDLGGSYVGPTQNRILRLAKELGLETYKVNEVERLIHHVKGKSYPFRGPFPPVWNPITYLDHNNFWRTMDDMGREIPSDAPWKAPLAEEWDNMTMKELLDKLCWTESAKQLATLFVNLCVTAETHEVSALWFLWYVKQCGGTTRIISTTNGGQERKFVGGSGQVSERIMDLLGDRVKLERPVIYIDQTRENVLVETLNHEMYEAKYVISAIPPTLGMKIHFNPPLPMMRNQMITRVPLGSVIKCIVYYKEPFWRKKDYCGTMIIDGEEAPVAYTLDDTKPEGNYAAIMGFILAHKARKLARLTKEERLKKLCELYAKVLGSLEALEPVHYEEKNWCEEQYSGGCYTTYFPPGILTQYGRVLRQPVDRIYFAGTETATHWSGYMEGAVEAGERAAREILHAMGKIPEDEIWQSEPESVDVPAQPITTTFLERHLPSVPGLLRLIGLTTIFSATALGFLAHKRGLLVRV
Kind of test: MAO-Glo assay, MAO-B. The note with it: read-out: % Inhibition at 20 μM ± SD, MAO-B. The test is classed as biochemical. The protocol: To determine selectivity, the compounds were tested for activity against the related FAD-dependent amine oxidase enzymes LSD1, MAO-A, and MAO-B. LSD1 activity was assessed using a commercially available assay kit (#700120, Cayman Chemical, Ann Arbor, MI, USA), in which the enzyme activity was determined by the horseradish peroxidase-catalyzed oxidation of 10-acetyl-3,7-dihydroxyphenoxazine to the highly fluorescent resorufin in response to H2O2 production. Monoamine oxidase activity was determined using recombinant human MAO-A and MAO-B (M7316-1VL & M7441-1VL, Sigma-Aldrich, St. Louis, MO, USA) and a commercially available assay kit (#V1401, MAO-Glo, Promega, Madison, WI, USA), which utilizes the MAO-catalyzed oxidation of a luciferin derivative coupled with esterase activity to produce luminescence. Fluorescent and luminescent readout was obtained using a SpectraMax M5 plate reader (Molecular Devices) equipped with SOFTmax PRO 7.0.3 software. […] Values were reported as mean % inhibition ± SD of triplicate assay wells normalized to background activity and compared to the vehicle control.

The subject of test [3] is SH-SY5Y cells. Kind of test: ROS production following acute excitotoxic stress, CM-H2DCFDA. The test is classed as cell-based, human. The note with it: 8 mM glutamate, 1 h, p < 0.0001. The protocol: To measure intracellular ROS production following acute excitotoxic stress, a CM-H2DCFDA (Invitrogen) probe was used. The SH-SY5Y cells were incubated in the presence of dichlorodihydrofluorescein diacetate (CM-H2DCFDA, Invitrogen), 20 µM in HBSS, at 37 °C for 30 min. The cells were then pelleted and washed with HBSS buffer (without phenol red, magnesium, or calcium). Phosphate buffer was not used to prevent the formation of polyamine–phosphate complexes. The cells were then resuspended in 96-well plates (Greiner #655086; black walled, cleat flat bottom) at a concentration of 1 × 10^6 cells/mL in HBSS containing 0–100 µM of inhibitor and 8 mM of glutamate. Dichlorodihydrofluorescein (DCF) fluorescence was monitored over 1 h (ex 488 nm, em 530 nm). The increase in fluorescence was reported as the % activity of control wells in the absence of the inhibitor. Fluorescent readout was obtained using a SpectraMax M5 plate reader (Molecular Devices) equipped with SOFTmax PRO 7.0.3 software. All test compounds were assessed for fluorescent activity at 530 nm prior to experimentation. The statistical analysis was conducted in GraphPad Prism 9.3 software (Graph-Pad, San Diego, California) using a one-way ANOVA with multiple comparisons (α = 0.05).

T1 sequence (Q9NWM0 whole entry): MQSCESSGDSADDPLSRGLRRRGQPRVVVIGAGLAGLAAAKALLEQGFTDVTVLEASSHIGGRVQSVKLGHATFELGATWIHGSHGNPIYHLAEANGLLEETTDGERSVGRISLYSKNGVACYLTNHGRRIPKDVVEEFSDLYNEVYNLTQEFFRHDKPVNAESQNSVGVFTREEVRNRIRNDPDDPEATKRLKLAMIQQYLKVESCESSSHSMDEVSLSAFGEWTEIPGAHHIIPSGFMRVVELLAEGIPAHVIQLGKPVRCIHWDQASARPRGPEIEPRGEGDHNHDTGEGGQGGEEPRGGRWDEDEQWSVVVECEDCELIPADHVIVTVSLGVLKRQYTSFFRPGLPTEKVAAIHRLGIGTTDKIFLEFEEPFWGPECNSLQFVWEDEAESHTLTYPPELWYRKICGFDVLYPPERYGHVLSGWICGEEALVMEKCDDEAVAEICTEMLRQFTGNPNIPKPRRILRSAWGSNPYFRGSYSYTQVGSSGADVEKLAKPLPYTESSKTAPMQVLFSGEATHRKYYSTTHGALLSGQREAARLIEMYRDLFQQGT

For orientation: inhibition means the drop in the measured response relative to a control, in per cent. As a reminder, the IC50 is the concentration at which inhibition is half-maximal. Read a high IC50 as weaker potency. `Cc1cc([C@H](O)CNCCCNC(=N)N)cc(C)c1O` [Compound 6]: the inhibition at 20 µM in test [1] (20 µM compound, no pre-incubation, triplicate, read-out: % Inhibition at 20 μM ± SD, SMOX) was 99.7 ± 0.1%; in test [2] it was -13.7 ± 3.8%. The molecule further gave an IC50 in test [1] (AUC over 60 s, pH 8) of 0.54 µM. In addition, the “Production of ROS vs vehicle control” value is “significantly decreased the production of ROS” in test [3] (10 µM compound) and “significantly decreased the production of ROS” in test [3] (50 µM compound, p = 0.0004 vs 10 µM).

Values taken from PMC9504029, “Identification and Characterization of Novel Small-Molecule SMOX Inhibitors” (Medical Sciences, 2022).
